Results reported in ChEMBL document CHEMBL3991601, “The target landscape of clinical kinase drugs” (Science, 2017).
Active and inactive are the calls of the source.

What follows are compounds tested against Chromodomain-helicase-DNA-binding protein 4 (Homo sapiens, UniProt Q14839).
Also: in the data inactive means no Kd found up to 30 µM.

Sequence of Chromodomain-helicase-DNA-binding protein 4 (Q14839 whole entry): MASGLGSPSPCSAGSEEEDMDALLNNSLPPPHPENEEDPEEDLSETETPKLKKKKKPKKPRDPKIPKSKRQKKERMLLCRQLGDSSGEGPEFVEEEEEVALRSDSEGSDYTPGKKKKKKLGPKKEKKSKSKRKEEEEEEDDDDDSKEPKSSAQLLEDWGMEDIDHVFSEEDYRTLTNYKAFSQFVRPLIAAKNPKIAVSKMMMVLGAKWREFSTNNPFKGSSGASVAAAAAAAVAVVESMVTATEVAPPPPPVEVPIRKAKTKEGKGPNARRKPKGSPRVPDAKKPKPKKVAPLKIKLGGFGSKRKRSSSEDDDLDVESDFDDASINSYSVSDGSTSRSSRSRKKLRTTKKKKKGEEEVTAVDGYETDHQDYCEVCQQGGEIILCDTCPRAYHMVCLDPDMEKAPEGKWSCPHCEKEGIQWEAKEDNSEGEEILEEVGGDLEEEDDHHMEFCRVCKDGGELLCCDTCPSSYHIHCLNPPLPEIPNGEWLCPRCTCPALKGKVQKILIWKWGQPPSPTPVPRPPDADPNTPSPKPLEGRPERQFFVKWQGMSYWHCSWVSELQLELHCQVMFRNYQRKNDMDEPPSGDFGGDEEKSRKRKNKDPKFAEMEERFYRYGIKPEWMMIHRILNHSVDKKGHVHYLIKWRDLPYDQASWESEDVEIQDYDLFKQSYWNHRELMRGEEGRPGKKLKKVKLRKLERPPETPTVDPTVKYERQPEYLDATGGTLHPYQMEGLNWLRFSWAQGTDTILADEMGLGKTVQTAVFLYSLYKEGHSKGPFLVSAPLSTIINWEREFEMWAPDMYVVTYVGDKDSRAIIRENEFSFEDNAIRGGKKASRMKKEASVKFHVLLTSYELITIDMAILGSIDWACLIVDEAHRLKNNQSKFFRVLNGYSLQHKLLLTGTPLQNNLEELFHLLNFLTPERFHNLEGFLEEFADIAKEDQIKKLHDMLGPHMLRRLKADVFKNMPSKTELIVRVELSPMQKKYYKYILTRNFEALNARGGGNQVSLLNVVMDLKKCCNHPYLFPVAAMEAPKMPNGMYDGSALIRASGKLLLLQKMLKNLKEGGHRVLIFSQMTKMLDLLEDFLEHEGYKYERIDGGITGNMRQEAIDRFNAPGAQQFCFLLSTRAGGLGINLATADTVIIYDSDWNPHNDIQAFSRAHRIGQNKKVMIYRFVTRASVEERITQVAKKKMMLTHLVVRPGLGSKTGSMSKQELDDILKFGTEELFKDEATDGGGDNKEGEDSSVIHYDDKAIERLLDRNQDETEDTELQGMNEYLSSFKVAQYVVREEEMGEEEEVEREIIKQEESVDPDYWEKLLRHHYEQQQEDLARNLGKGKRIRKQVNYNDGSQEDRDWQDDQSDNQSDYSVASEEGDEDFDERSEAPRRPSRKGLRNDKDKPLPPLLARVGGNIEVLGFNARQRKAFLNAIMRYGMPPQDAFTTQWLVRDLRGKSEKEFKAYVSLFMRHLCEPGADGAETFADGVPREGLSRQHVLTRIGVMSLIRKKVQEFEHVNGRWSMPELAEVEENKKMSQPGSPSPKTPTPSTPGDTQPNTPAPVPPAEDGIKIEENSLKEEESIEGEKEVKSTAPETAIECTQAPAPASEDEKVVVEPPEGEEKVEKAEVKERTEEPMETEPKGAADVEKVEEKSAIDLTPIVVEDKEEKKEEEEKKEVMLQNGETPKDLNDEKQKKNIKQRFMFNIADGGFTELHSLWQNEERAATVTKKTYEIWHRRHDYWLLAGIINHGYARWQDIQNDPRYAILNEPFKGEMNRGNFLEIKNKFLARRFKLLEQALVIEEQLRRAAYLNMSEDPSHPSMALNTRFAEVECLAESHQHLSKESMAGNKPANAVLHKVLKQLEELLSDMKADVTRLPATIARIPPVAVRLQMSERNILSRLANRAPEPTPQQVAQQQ

SMILES	Kd
O=C(Nc1cccc(Cl)c1)Nc1ncc(CCNc2ncnc3ccsc23)s1 [SNS-314]	> 30 µM (inactive)
C[C@@H]1CN(Cc2ccc(F)cc2)[C@@H](C)CN1C(=O)c1cc2c(C(=O)C(=O)N(C)C)cn(C)c2cc1Cl [TALMAPIMOD]	> 30 µM (inactive)

What follows are compounds tested against Protein kinase C alpha type (Homo sapiens, UniProt P17252).

SMILES	Kd
O=C(Nc1cccc(Cl)c1)Nc1ncc(CCNc2ncnc3ccsc23)s1 [SNS-314]	> 30 µM (inactive)
C[C@@H]1CN(Cc2ccc(F)cc2)[C@@H](C)CN1C(=O)c1cc2c(C(=O)C(=O)N(C)C)cn(C)c2cc1Cl [TALMAPIMOD]	> 30 µM (inactive)

These compounds were tested against Myosin-14 (Homo sapiens, UniProt Q7Z406).

SMILES	Kd
O=C(Nc1cccc(Cl)c1)Nc1ncc(CCNc2ncnc3ccsc23)s1 [SNS-314]	> 30 µM (inactive)
C[C@@H]1CN(Cc2ccc(F)cc2)[C@@H](C)CN1C(=O)c1cc2c(C(=O)C(=O)N(C)C)cn(C)c2cc1Cl [TALMAPIMOD]	> 30 µM (inactive)

Each compound was assayed against Ephrin type-A receptor 2 (Homo sapiens, UniProt P29317).

SMILES	Kd
C[C@@H]1CN(Cc2ccc(F)cc2)[C@@H](C)CN1C(=O)c1cc2c(C(=O)C(=O)N(C)C)cn(C)c2cc1Cl [TALMAPIMOD]	> 30 µM (inactive)

These compounds were tested against Inosine-5'-monophosphate dehydrogenase 2 (Homo sapiens, UniProt P12268).

SMILES	Kd
O=C(Nc1cccc(Cl)c1)Nc1ncc(CCNc2ncnc3ccsc23)s1 [SNS-314]	> 30 µM (inactive)

Each compound was assayed against Wee1-like protein kinase (Homo sapiens, UniProt P30291).
Sequence of Wee1-like protein kinase (P30291 whole entry): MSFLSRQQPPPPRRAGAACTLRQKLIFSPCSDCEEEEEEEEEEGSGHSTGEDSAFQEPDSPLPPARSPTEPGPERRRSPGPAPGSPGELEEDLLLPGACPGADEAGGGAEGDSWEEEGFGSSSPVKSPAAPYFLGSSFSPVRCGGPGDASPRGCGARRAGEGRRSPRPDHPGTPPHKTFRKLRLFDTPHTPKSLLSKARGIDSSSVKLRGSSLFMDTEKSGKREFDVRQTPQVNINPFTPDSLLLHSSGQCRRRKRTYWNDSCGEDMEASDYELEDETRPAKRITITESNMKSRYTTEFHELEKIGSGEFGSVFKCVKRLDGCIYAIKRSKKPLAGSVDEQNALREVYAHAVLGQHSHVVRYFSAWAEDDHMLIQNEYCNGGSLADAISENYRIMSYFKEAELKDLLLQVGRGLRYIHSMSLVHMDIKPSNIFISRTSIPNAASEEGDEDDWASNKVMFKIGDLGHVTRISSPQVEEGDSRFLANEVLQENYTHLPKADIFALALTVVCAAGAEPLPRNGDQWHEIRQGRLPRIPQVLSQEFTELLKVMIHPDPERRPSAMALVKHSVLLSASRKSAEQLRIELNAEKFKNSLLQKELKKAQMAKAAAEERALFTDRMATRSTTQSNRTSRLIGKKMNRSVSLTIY

SMILES	Kd
O=C(Nc1cccc(Cl)c1)Nc1ncc(CCNc2ncnc3ccsc23)s1 [SNS-314]	> 30 µM (inactive)
C[C@@H]1CN(Cc2ccc(F)cc2)[C@@H](C)CN1C(=O)c1cc2c(C(=O)C(=O)N(C)C)cn(C)c2cc1Cl [TALMAPIMOD]	> 30 µM (inactive)

The compounds below were run against T1, Serine/threonine-protein kinase STK11 (Homo sapiens, UniProt Q15831).
T1 sequence (Q15831 whole entry): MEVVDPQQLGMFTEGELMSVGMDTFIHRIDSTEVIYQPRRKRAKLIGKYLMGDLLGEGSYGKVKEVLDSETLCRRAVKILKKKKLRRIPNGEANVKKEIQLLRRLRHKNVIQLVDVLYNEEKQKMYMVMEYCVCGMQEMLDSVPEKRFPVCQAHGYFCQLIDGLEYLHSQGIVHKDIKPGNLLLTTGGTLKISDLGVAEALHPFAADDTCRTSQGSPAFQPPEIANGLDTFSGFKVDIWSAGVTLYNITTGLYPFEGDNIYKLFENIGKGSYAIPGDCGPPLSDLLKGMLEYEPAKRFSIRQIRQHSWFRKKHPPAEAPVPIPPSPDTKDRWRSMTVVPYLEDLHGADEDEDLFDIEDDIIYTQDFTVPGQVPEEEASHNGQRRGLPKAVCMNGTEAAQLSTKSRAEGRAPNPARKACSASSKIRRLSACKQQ

SMILES	Kd
O=C(Nc1cccc(Cl)c1)Nc1ncc(CCNc2ncnc3ccsc23)s1 [SNS-314]	> 30 µM (inactive)
C[C@@H]1CN(Cc2ccc(F)cc2)[C@@H](C)CN1C(=O)c1cc2c(C(=O)C(=O)N(C)C)cn(C)c2cc1Cl [TALMAPIMOD]	> 30 µM (inactive)

What follows are compounds tested against T2, Phenylalanine--tRNA ligase beta subunit (Homo sapiens, UniProt Q9NSD9).
T2 sequence (Q9NSD9 whole entry): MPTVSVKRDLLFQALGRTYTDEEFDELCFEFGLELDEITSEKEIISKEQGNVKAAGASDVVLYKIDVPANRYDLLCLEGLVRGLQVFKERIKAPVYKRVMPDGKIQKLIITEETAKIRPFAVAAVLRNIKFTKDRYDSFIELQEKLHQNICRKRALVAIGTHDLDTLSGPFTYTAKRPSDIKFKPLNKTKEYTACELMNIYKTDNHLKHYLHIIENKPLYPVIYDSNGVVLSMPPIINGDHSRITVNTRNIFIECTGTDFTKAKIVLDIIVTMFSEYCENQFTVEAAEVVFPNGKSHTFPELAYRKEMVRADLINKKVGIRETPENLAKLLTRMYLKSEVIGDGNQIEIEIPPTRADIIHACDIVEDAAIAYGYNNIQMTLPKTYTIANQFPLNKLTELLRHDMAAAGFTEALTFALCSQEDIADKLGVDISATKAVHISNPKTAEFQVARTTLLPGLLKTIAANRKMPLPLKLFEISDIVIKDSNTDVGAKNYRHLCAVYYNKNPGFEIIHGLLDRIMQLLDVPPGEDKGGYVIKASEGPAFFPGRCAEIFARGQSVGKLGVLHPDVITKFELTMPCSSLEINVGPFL

SMILES	Kd
O=C(Nc1cccc(Cl)c1)Nc1ncc(CCNc2ncnc3ccsc23)s1 [SNS-314]	> 30 µM (inactive)
C[C@@H]1CN(Cc2ccc(F)cc2)[C@@H](C)CN1C(=O)c1cc2c(C(=O)C(=O)N(C)C)cn(C)c2cc1Cl [TALMAPIMOD]	> 30 µM (inactive)

What follows are compounds tested against Adenosine kinase (Homo sapiens, UniProt P55263).
Sequence of Adenosine kinase (P55263 whole entry): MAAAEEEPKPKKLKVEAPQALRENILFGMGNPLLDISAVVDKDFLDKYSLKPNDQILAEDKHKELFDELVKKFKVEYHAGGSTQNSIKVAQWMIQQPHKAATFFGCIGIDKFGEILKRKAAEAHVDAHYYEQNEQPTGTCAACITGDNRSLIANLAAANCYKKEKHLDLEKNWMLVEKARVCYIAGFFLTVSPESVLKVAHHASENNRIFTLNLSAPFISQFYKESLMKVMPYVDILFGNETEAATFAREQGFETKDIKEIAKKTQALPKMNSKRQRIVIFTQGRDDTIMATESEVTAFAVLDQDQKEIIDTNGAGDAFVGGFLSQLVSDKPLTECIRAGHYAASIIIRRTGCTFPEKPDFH

SMILES	Kd
O=C(Nc1cccc(Cl)c1)Nc1ncc(CCNc2ncnc3ccsc23)s1 [SNS-314]	> 30 µM (inactive)
C[C@@H]1CN(Cc2ccc(F)cc2)[C@@H](C)CN1C(=O)c1cc2c(C(=O)C(=O)N(C)C)cn(C)c2cc1Cl [TALMAPIMOD]	> 30 µM (inactive)

Each compound was assayed against Putative heat shock protein HSP 90-beta 2 (Homo sapiens, UniProt Q58FF8).
Sequence of Putative heat shock protein HSP 90-beta 2 (Q58FF8 whole entry): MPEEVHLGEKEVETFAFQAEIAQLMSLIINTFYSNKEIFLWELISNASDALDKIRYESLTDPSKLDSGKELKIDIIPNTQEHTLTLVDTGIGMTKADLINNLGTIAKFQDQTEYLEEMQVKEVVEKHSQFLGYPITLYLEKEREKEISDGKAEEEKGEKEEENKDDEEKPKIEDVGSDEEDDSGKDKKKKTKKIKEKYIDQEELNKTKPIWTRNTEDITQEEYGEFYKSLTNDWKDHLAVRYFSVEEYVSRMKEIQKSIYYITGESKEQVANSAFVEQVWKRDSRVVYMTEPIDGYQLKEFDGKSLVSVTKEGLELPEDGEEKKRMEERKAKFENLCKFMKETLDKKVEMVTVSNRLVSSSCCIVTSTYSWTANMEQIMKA

SMILES	Kd
O=C(Nc1cccc(Cl)c1)Nc1ncc(CCNc2ncnc3ccsc23)s1 [SNS-314]	> 30 µM (inactive)
C[C@@H]1CN(Cc2ccc(F)cc2)[C@@H](C)CN1C(=O)c1cc2c(C(=O)C(=O)N(C)C)cn(C)c2cc1Cl [TALMAPIMOD]	> 30 µM (inactive)

What follows are compounds tested against 26S proteasome regulatory subunit 6B (Homo sapiens, UniProt P43686).
Sequence of 26S proteasome regulatory subunit 6B (P43686 whole entry): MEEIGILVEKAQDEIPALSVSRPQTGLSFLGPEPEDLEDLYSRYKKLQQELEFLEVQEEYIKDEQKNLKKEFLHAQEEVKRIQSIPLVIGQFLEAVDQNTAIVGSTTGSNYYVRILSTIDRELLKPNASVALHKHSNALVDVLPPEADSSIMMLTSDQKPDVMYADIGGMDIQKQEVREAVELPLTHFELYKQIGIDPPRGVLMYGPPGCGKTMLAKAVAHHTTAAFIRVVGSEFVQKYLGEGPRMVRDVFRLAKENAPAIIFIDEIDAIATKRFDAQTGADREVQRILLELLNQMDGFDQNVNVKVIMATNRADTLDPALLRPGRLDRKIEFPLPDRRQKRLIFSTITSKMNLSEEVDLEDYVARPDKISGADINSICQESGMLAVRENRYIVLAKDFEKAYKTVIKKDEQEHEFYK

SMILES	Kd
O=C(Nc1cccc(Cl)c1)Nc1ncc(CCNc2ncnc3ccsc23)s1 [SNS-314]	> 30 µM (inactive)
C[C@@H]1CN(Cc2ccc(F)cc2)[C@@H](C)CN1C(=O)c1cc2c(C(=O)C(=O)N(C)C)cn(C)c2cc1Cl [TALMAPIMOD]	> 30 µM (inactive)

Each compound was assayed against T3, Tyrosine--tRNA ligase, cytoplasmic (Homo sapiens, UniProt P54577).
T3 sequence (P54577 whole entry): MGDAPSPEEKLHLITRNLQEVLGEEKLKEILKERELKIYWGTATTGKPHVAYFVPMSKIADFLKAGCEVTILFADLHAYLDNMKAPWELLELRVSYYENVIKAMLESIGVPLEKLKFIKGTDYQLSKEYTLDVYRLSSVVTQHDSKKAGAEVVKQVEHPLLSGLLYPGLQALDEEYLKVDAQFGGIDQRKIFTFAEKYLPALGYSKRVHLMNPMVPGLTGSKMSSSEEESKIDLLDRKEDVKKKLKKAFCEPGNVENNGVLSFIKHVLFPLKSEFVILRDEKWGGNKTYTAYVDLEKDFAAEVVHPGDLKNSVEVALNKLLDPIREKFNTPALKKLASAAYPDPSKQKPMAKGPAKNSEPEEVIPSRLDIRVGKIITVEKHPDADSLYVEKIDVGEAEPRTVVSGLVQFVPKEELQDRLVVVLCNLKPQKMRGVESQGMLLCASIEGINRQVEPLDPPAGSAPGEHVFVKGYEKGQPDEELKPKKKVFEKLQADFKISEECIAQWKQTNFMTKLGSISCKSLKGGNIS

SMILES	Kd
O=C(Nc1cccc(Cl)c1)Nc1ncc(CCNc2ncnc3ccsc23)s1 [SNS-314]	> 30 µM (inactive)
C[C@@H]1CN(Cc2ccc(F)cc2)[C@@H](C)CN1C(=O)c1cc2c(C(=O)C(=O)N(C)C)cn(C)c2cc1Cl [TALMAPIMOD]	> 30 µM (inactive)

These compounds were tested against T4, Electron transfer flavoprotein subunit beta (Homo sapiens, UniProt P38117).
T4 sequence (P38117 whole entry): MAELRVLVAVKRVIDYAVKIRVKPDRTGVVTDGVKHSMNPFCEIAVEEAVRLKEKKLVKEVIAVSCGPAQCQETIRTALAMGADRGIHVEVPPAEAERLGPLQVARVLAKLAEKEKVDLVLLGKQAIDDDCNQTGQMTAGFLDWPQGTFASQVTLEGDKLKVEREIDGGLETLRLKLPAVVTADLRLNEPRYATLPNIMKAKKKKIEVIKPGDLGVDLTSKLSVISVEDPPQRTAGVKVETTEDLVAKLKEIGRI

SMILES	Kd
O=C(Nc1cccc(Cl)c1)Nc1ncc(CCNc2ncnc3ccsc23)s1 [SNS-314]	> 30 µM (inactive)
C[C@@H]1CN(Cc2ccc(F)cc2)[C@@H](C)CN1C(=O)c1cc2c(C(=O)C(=O)N(C)C)cn(C)c2cc1Cl [TALMAPIMOD]	> 30 µM (inactive)

What follows are compounds tested against Mitogen-activated protein kinase kinase kinase 4 (Homo sapiens, UniProt Q9Y6R4).

SMILES	Kd
O=C(Nc1cccc(Cl)c1)Nc1ncc(CCNc2ncnc3ccsc23)s1 [SNS-314]	> 30 µM (inactive)
C[C@@H]1CN(Cc2ccc(F)cc2)[C@@H](C)CN1C(=O)c1cc2c(C(=O)C(=O)N(C)C)cn(C)c2cc1Cl [TALMAPIMOD]	> 30 µM (inactive)

What follows are compounds tested against Interleukin-1 receptor-associated kinase 1 (Homo sapiens, UniProt P51617).

SMILES	Kd
C[C@@H]1CN(Cc2ccc(F)cc2)[C@@H](C)CN1C(=O)c1cc2c(C(=O)C(=O)N(C)C)cn(C)c2cc1Cl [TALMAPIMOD]	> 30 µM (inactive)
